Measurements published in ChEMBL document CHEMBL4004803, “Syntheses and antibacterial activity of soluble 9-bromo substituted indolizinoquinoline-5,12-dione derivatives” (Eur J Med Chem, 2017).
≈ marks a conversion by molar mass, not a printed value.

Experiments:
Staphylococcus aureus [1] = experiment: Antibacterial activity against methicillin-resistant Staphylococcus aureus 518036 clinical isolate after 20 to 24 hrs by two-fold microdilution method; assay type: functional
Staphylococcus aureus [2] = experiment: Antibacterial activity against methicillin-resistant Staphylococcus aureus 221014 clinical isolate after 20 to 24 hrs by two-fold microdilution method; assay type: functional
Staphylococcus aureus [3] = experiment: Antibacterial activity against methicillin-resistant Staphylococcus aureus 130031 clinical isolate after 20 to 24 hrs by two-fold microdilution method; assay type: functional
Staphylococcus aureus [4] = experiment: Antibacterial activity against methicillin-resistant Staphylococcus aureus 122820-2 clinical isolate after 20 to 24 hrs by two-fold microdilution method; assay type: functional
Staphylococcus aureus [5] = experiment: Antibacterial activity against methicillin-resistant Staphylococcus aureus 110910-2 clinical isolate after 20 to 24 hrs by two-fold microdilution method; assay type: functional
Staphylococcus aureus [6] = experiment: Antibacterial activity against methicillin-resistant Staphylococcus aureus 122710-2 clinical isolate after 20 to 24 hrs by two-fold microdilution method; assay type: functional
Staphylococcus aureus [7] = experiment: Antibacterial activity against methicillin-resistant Staphylococcus aureus 531026 clinical isolate after 20 to 24 hrs by two-fold microdilution method; assay type: functional
Staphylococcus aureus [8] = experiment: Antibacterial activity against methicillin-resistant Staphylococcus aureus 1215028 clinical isolate after 20 to 24 hrs by two-fold microdilution method; assay type: functional
Staphylococcus aureus [9] = experiment: Antibacterial activity against methicillin-resistant Staphylococcus aureus 1106003 clinical isolate after 20 to 24 hrs by two-fold microdilution method; assay type: functional
Staphylococcus aureus [10] = experiment: Antibacterial activity against methicillin-resistant Staphylococcus aureus 1216052 clinical isolate after 20 to 24 hrs by two-fold microdilution method; assay type: functional
Staphylococcus aureus [11] = experiment: Antibacterial activity against methicillin-resistant Staphylococcus aureus 519028 clinical isolate after 20 to 24 hrs by two-fold microdilution method; assay type: functional
Staphylococcus aureus [12] = experiment: Antibacterial activity against methicillin-resistant Staphylococcus aureus 921026 clinical isolate after 20 to 24 hrs by two-fold microdilution method; assay type: functional
Staphylococcus aureus [13] = experiment: Antibacterial activity against methicillin-resistant Staphylococcus aureus 110432 clinical isolate after 20 to 24 hrs by two-fold microdilution method; assay type: functional
Staphylococcus aureus [14] = experiment: Antibacterial activity against methicillin-resistant Staphylococcus aureus 1026021 clinical isolate after 20 to 24 hrs by two-fold microdilution method; assay type: functional
Staphylococcus aureus [15] = experiment: Antibacterial activity against methicillin-resistant Staphylococcus aureus 829034 clinical isolate after 20 to 24 hrs by two-fold microdilution method; assay type: functional
Staphylococcus aureus [16] = experiment: Antibacterial activity against methicillin-resistant Staphylococcus aureus 1107027 clinical isolate after 20 to 24 hrs by two-fold microdilution method; assay type: functional
Staphylococcus aureus [17] = experiment: Antibacterial activity against methicillin-resistant Staphylococcus aureus 1101016 clinical isolate after 20 to 24 hrs by two-fold microdilution method; assay type: functional
Staphylococcus aureus [18] = experiment: Antibacterial activity against methicillin-resistant Staphylococcus aureus 215073 clinical isolate after 20 to 24 hrs by two-fold microdilution method; assay type: functional
Staphylococcus aureus [19] = experiment: Antibacterial activity against methicillin-resistant Staphylococcus aureus 305026 clinical isolate after 20 to 24 hrs by two-fold microdilution method; assay type: functional
Staphylococcus aureus [20] = experiment: Antibacterial activity against methicillin-resistant Staphylococcus aureus 1128040 clinical isolate after 20 to 24 hrs by two-fold microdilution method; assay type: functional
Staphylococcus aureus [21] = experiment: Antibacterial activity against methicillin-resistant Staphylococcus aureus GLH14 clinical isolate after 20 to 24 hrs by two-fold microdilution method; assay type: functional
Staphylococcus aureus [22] = experiment: Antibacterial activity against methicillin-resistant Staphylococcus aureus 212014 clinical isolate after 20 to 24 hrs by two-fold microdilution method; assay type: functional
Staphylococcus aureus [23] = experiment: Antibacterial activity against methicillin-resistant Staphylococcus aureus 109244 clinical isolate after 20 to 24 hrs by two-fold microdilution method; assay type: functional
Staphylococcus aureus [24] = experiment: Antibacterial activity against methicillin-resistant Staphylococcus aureus 110325 clinical isolate after 20 to 24 hrs by two-fold microdilution method; assay type: functional
Staphylococcus aureus [25] = experiment: Antibacterial activity against methicillin-resistant Staphylococcus aureus 110414 clinical isolate after 20 to 24 hrs by two-fold microdilution method; assay type: functional
Staphylococcus aureus [26] = experiment: Antibacterial activity against methicillin-resistant Staphylococcus aureus 414244 clinical isolate after 20 to 24 hrs by two-fold microdilution method; assay type: functional
Staphylococcus aureus [27] = experiment: Antibacterial activity against methicillin-resistant Staphylococcus aureus 1012039 clinical isolate after 20 to 24 hrs by two-fold microdilution method; assay type: functional
Staphylococcus aureus [28] = experiment: Antibacterial activity against methicillin-resistant Staphylococcus aureus 1211026 clinical isolate after 20 to 24 hrs by two-fold microdilution method; assay type: functional
[29] = Solubility of the compound in water at 25 degC measured after shaking for 4 hrs by UV method; assay type: physicochemical; conditions: water
Staphylococcus aureus [30] = experiment: Antibacterial activity against methicillin-resistant Staphylococcus aureus 1025022 clinical isolate after 20 to 24 hrs by two-fold microdilution method; assay type: functional
Staphylococcus aureus [31] = experiment: Antibacterial activity against methicillin-resistant Staphylococcus aureus 11703 clinical isolate after 20 to 24 hrs by two-fold microdilution method; assay type: functional
Staphylococcus aureus [32] = experiment: Antibacterial activity against methicillin-resistant Staphylococcus aureus 523005 clinical isolate after 20 to 24 hrs by two-fold microdilution method; assay type: functional
Staphylococcus aureus [33] = experiment: Antibacterial activity against methicillin-resistant Staphylococcus aureus 503025 clinical isolate after 20 to 24 hrs by two-fold microdilution method; assay type: functional
Staphylococcus aureus [34] = experiment: Antibacterial activity against methicillin-resistant Staphylococcus aureus 214026 clinical isolate after 20 to 24 hrs by two-fold microdilution method; assay type: functional
Staphylococcus aureus [35] = experiment: Antibacterial activity against methicillin-resistant Staphylococcus aureus 224001 clinical isolate after 20 to 24 hrs by two-fold microdilution method; assay type: functional
Staphylococcus aureus [36] = experiment: Antibacterial activity against methicillin-resistant Staphylococcus aureus 216054 clinical isolate after 20 to 24 hrs by two-fold microdilution method; assay type: functional
Staphylococcus aureus [37] = experiment: Antibacterial activity against methicillin-resistant Staphylococcus aureus 3250299 clinical isolate after 20 to 24 hrs by two-fold microdilution method; assay type: functional
Staphylococcus aureus [38] = experiment: Antibacterial activity against methicillin-resistant Staphylococcus aureus 1029025 clinical isolate after 20 to 24 hrs by two-fold microdilution method; assay type: functional
Staphylococcus aureus [39] = experiment: Antibacterial activity against methicillin-resistant Staphylococcus aureus 20534 clinical isolate after 20 to 24 hrs by two-fold microdilution method; assay type: functional
Staphylococcus aureus [40] = experiment: Antibacterial activity against methicillin-resistant Staphylococcus aureus 121026 clinical isolate after 20 to 24 hrs by two-fold microdilution method; assay type: functional
Staphylococcus aureus [41] = experiment: Antibacterial activity against methicillin-resistant Staphylococcus aureus 1212057-1 clinical isolate after 20 to 24 hrs by two-fold microdilution method; assay type: functional
Staphylococcus aureus [42] = experiment: Antibacterial activity against methicillin-resistant Staphylococcus aureus 112430 clinical isolate after 20 to 24 hrs by two-fold microdilution method; assay type: functional
Staphylococcus aureus [43] = experiment: Antibacterial activity against methicillin-resistant Staphylococcus aureus 625032 clinical isolate after 20 to 24 hrs by two-fold microdilution method; assay type: functional
Staphylococcus aureus [44] = experiment: Antibacterial activity against methicillin-resistant Staphylococcus aureus 519030 clinical isolate after 20 to 24 hrs by two-fold microdilution method; assay type: functional
Escherichia coli = experiment: Antibacterial activity against Escherichia coli ATCC 25922 after 20 to 24 hrs by two-fold microdilution method; assay type: functional
Staphylococcus aureus [45] = experiment: Antibacterial activity against methicillin-resistant Staphylococcus aureus 531220 clinical isolate after 20 to 24 hrs by two-fold microdilution method; assay type: functional
Staphylococcus aureus [46] = experiment: Antibacterial activity against methicillin-resistant Staphylococcus aureus 1207026 clinical isolate after 20 to 24 hrs by two-fold microdilution method; assay type: functional

Q: What does the source list for `CN1CCN(CCCCCCOC(=O)c2c3c(n4cc(Br)ccc24)C(=O)c2ncccc2C3=O)CC1`?
A: MIC (Staphylococcus aureus [1]): 0.125 µg/mL (≈ 0.226 µM); MIC (Staphylococcus aureus [2]): 0.125 µg/mL (≈ 0.226 µM); MIC (Staphylococcus aureus [3]): 0.25 µg/mL (≈ 0.452 µM); MIC (Staphylococcus aureus [4]): 0.063 µg/mL (≈ 0.114 µM); MIC (Staphylococcus aureus [5]): 0.125 µg/mL (≈ 0.226 µM); MIC (Staphylococcus aureus [6]): 0.063 µg/mL (≈ 0.114 µM); MIC (Staphylococcus aureus [7]): 1 µg/mL (≈ 1.81 µM); MIC (Staphylococcus aureus [8]): 0.063 µg/mL (≈ 0.114 µM); MIC (Staphylococcus aureus [9]): > 16 µg/mL; MIC (Staphylococcus aureus [10]): 16 µg/mL (≈ 28.9 µM); MIC (Staphylococcus aureus [11]): 0.125 µg/mL (≈ 0.226 µM); MIC (Staphylococcus aureus [12]): ≤ 0.0078 µg/mL; MIC (Staphylococcus aureus [13]): 0.125 µg/mL (≈ 0.226 µM); MIC (Staphylococcus aureus [14]): 16 µg/mL (≈ 28.9 µM); MIC (Staphylococcus aureus [15]): 0.5 µg/mL (≈ 0.903 µM); MIC (Staphylococcus aureus [16]): 0.25 µg/mL (≈ 0.452 µM); MIC (Staphylococcus aureus [17]): 0.25 µg/mL (≈ 0.452 µM); MIC (Staphylococcus aureus [18]): 0.063 µg/mL (≈ 0.114 µM); MIC (Staphylococcus aureus [19]): 0.25 µg/mL (≈ 0.452 µM); MIC (Staphylococcus aureus [20]): 0.063 µg/mL (≈ 0.114 µM); MIC (Staphylococcus aureus [21]): 0.063 µg/mL (≈ 0.114 µM); MIC (Staphylococcus aureus [22]): 0.25 µg/mL (≈ 0.452 µM); MIC (Staphylococcus aureus [23]): 0.125 µg/mL (≈ 0.226 µM); MIC (Staphylococcus aureus [24]): ≤ 0.0078 µg/mL; MIC (Staphylococcus aureus [25]): 0.125 µg/mL (≈ 0.226 µM); MIC (Staphylococcus aureus [26]): 0.063 µg/mL (≈ 0.114 µM); MIC (Staphylococcus aureus [27]): 0.125 µg/mL (≈ 0.226 µM); MIC (Staphylococcus aureus [28]): 0.125 µg/mL (≈ 0.226 µM); solubility thermodynamic at 4 h [29]: 2060 µg/mL (≈ 3720 µM); MIC (Staphylococcus aureus [30]): 0.125 µg/mL (≈ 0.226 µM); MIC (Staphylococcus aureus [31]): 0.25 µg/mL (≈ 0.452 µM); MIC (Staphylococcus aureus [32]): 0.25 µg/mL (≈ 0.452 µM); MIC (Staphylococcus aureus [33]): 0.25 µg/mL (≈ 0.452 µM); MIC (Staphylococcus aureus [34]): 0.031 µg/mL (≈ 0.056 µM); MIC (Staphylococcus aureus [35]): 0.5 µg/mL (≈ 0.903 µM); MIC (Staphylococcus aureus [36]): 0.125 µg/mL (≈ 0.226 µM); MIC (Staphylococcus aureus [37]): 0.063 µg/mL (≈ 0.114 µM); MIC (Staphylococcus aureus [38]): 0.063 µg/mL (≈ 0.114 µM); MIC (Staphylococcus aureus [39]): 0.125 µg/mL (≈ 0.226 µM); MIC (Staphylococcus aureus [40]): 0.031 µg/mL (≈ 0.056 µM); MIC (Staphylococcus aureus [41]): 0.031 µg/mL (≈ 0.056 µM); MIC (Staphylococcus aureus [42]): 0.125 µg/mL (≈ 0.226 µM); MIC (Staphylococcus aureus [43]): 0.125 µg/mL (≈ 0.226 µM); MIC (Staphylococcus aureus [44]): 0.5 µg/mL (≈ 0.903 µM); MIC (Escherichia coli): 4 µg/mL (≈ 7.23 µM); MIC (Staphylococcus aureus [45]): ≤ 0.0078 µg/mL; MIC (Staphylococcus aureus [46]): 0.063 µg/mL (≈ 0.114 µM)
